These results are taken from patent publication US20130202619A1, “METHODS AND MATERIALS FOR REDUCING LIVER FIBROSIS” (MAYO FOUNDATION FOR MEDICAL EDUCATION AND RESEARCH, priority 2010, published 2013).

Several values for one entry are separate records, joined by “and”; a condition that tells them apart may be missing. Identical values can stand only once. Entries after “also recorded” stand apart in the source; their conditions may differ.

Assay type in all cases: cell-based, human
Assay [1] deals with HuH7 cells. Briefly: Lumican gene expression in HuH7 cells exposed to free fatty acids (real-time PCR). To be noted: 400 μM fatty acid, 6 hours. The method, then: (§1) The hepatocyte cell line HuH7, the cholangiocyte cell line H69, and the hepatic stellate cell line LX2 were grown to confluence in DMEM with 10% fetal bovine serum and antibiotics Penicillin (100 U/mL) and Streptomycin (10 μg/mL) at 37° C. and 5% CO2 Cells were harvested, washed in cold phosphate buffered saline and snap frozen. […] At 24, 48 and 72 hours, cells were trypsin digested, washed three times with ice cold phosphate buffered saline and quick frozen at −80° C. in two separate lots for either protein or RNA extraction. In separate experiments, palmitic or stearic acid was added to the culture media of HuH7 cells at a concentration of 400 μM (Cazanave et al., J. Biol. Chem., 284:26591-26602 (2009)). All experiments were carried out in triplicate and results are reported as the average of triplicates.
(§2) Total RNA was isolated from cells collected from the cell culture experiments (described herein) or from liver tissue samples collected from patient or from mouse experiments (described herein) using the RNeasy Plus kit as per the manufacturer's instructions (Qiagen, GmbH, Germany). 500 ng of total RNA was reverse transcribed into cDNA using random hexamers (Transcriptor High Fidelity cDNA synthesis kit, Roche, USA). Real time PCR was carried on a LightCycler (Roche, CA, USA) using equal quantities of template cDNA in a total volume of 20 μL using Lightcycler FastStart DNA Master SYBR green1 (Roche, Indianapolis, USA). Expression of 18S rRNA was used as the internal standard (Quantum RNA 18S Internal Standards, Ambion Inc, Austin, Tex., USA). Standard curves were generated for each optimized assay using known PCR copy numbers to produce a linear plot of threshold cycle (Ct) against log dilution. Data for lumican is presented as lumican copy number normalized against the 18S absolute copy number where indicated. For all other gene expression assays, results are presented as fold change as represented by the expression 2^−ΔΔCt (Schmittgen & Livak, Nat. Protoc., 3:1101-1108 (2008)).
Gene expression data presented as copy number are expressed as mean±standard error. […]
A general note: Real-time PCR tracks product formation cycle by cycle.

In the next assay the test system is LX2 cells. In words: Response of LX2 cells to TGFβ1 (gene expression by real-time PCR, cell fate). The method, then:
as §1, §2
(§3) HuH7 or LX2 cells were plated at uniform density in single well chamber slides adopting the same protocol as for cell culture described above. At time points of 0, 24, 48, and 72 hours post seeding, medium was aspirated, slides were washed with phosphate buffered saline, air dried and stored at −80° C. until staining. Briefly, cells were fixed in acetone, followed by 1% paraformaldehyde. Cells were immunostained with anti human lumican at dilution of 1:50 (Santa Cruz, USA) and detected with appropriate FITC labeled secondary antibodies (MP Biomedicals, OH, USA). Negative controls consisted of identical treatments with omission of primary antibody. DAPI was used for nuclear staining (Sigma, MO, USA). Images were captured on an Olympus microscope with appropriate filter settings for FITC (green) and DAPI (blue).
(§4) Gene expression data presented as copy number are expressed as mean±standard error. Fold changes represent values normalized to 18S and to time point of 0 hours. To assess significance of difference between treatments, the paired 2-tailed student's test with equal variance was used. A p value of <0.05 was considered statistically significant.

The test system of assay [2] is HuH7 cells. In words: Response of HuH7 cells to TGFβ1 (gene expression by real-time PCR, cell fate). As to the method:
as §1, §2, §3, §4

[3] abbreviates: HuH7 cells, TGFβ1 2 ng/mL, 48 hours.

In the case of `CCCCCCCCCCCCCCCC(=O)O` [palmitic acid], the figures for the “increase in lumican expression” value in the assay on HuH7 cells [1] and with HuH7 cells [1] (listed as palmitic) were 3.1 fold and “three fold”, respectively.
Turning to `CCCCCCCCCCCCCCCCCC(=O)O` [stearic acid], in the assay on HuH7 cells [1], the “increase in lumican expression” value is 1.9 fold and 2 fold.
In the case of “TGFβ1: pro-fibrotic cytokine transforming growth factor β1 (R&D systems), used at 2 ng/mL”, the “increase in lumican gene expression over baseline” value is 27 fold with LX2 cells (LX2 cells, TGFβ1 2 ng/mL, 72 hours); 15 fold and 14 fold with HuH7 cells [2] (HuH7 cells, TGFβ1 2 ng/mL, 72 hours). The “cell fate (apoptosis / proliferation)” value in the assay with LX2 cells (LX2 cells, TGFβ1 2 ng/mL, over 72 hours) is “continued to proliferate”; in the assay with HuH7 cells [2] (HuH7 cells, TGFβ1 2 ng/mL, over 72 hours), “underwent apoptosis”. Also, the “increase in alpha smooth muscle actin expression” value is 4.5 fold with LX2 cells (LX2 cells, TGFβ1, 48 hours) and “fourfold; also recorded: four fold” in the assay on HuH7 cells [2] (HuH7 cells, TGFβ1, 48 hours). Besides, the “increase in collagen 1α1 gene expression” value is reported as 4 fold with LX2 cells (LX2 stellate cells, TGFβ1 2 ng/mL, 24 hours); 5 fold in the assay with LX2 cells (LX2 stellate cells, TGFβ1 2 ng/mL, 48 hours); 9 fold with HuH7 cells [2] (HuH7 cells, TGFβ1 2 ng/mL, 24 hours); > 100 fold with HuH7 cells [2] (setting [3]). For the same compound, the “beta 1 integrin expression” value was “gradual increase” in the assay on LX2 cells (LX2 stellate cells, TGFβ1 2 ng/mL, up to 72 hours) and “no change” with HuH7 cells [2] (HuH7 hepatocytes, TGFβ1 2 ng/mL, up to 72 hours). Further, the “increase in lumican gene expression” value with HuH7 cells [2] (setting [3]) is “four fold”. Further, the “decrease in albumin production” value in the assay with HuH7 cells [2] (HuH7 cells, TGFβ1, 24 hours) was 10 fold; in the assay on HuH7 cells [2] (HuH7 cells, TGFβ1, 48 hours (48-72 hours)) it was “five fold; also recorded: four fold”.
